#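 Compound exposure: 48 hours, 5 concentrations, 96-well plates. Definition used: TGI = concentration required for complete inhibition of growth.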
# What was measured:
# Assay in all cases: NCI-60 cell line screen, 48 h
# 786-0 renal = test system: 786-0 renal
# A498 renal = test system: A498 renal
# A549 NSCLC = test system: A549 NSCLC
# ACHN renal = test system: ACHN renal
# BT-549 breast = test system: BT-549 breast
# CAKI-1 renal = test system: CAKI-1 renal
# CCRF-CEM leukemia = test system: CCRF-CEM leukemia
# COLO 205 colon = test system: COLO 205 colon
# DU-145 prostate = test system: DU-145 prostate
# EKVX NSCLC = test system: EKVX NSCLC
# HCC-2998 colon = test system: HCC-2998 colon
# HCT-116 colon = test system: HCT-116 colon
# HCT-15 colon = test system: HCT-15 colon
# HL-60(TB) leukemia = test system: HL-60(TB) leukemia
# HOP-62 NSCLC = test system: HOP-62 NSCLC
# HOP-92 NSCLC = test system: HOP-92 NSCLC
# HS 578T breast = test system: HS 578T breast
# HT29 colon = test system: HT29 colon
# IGROV1 ovarian = test system: IGROV1 ovarian
# K-562 leukemia = test system: K-562 leukemia
# KM12 colon = test system: KM12 colon
# LOX IMVI melanoma = test system: LOX IMVI melanoma
# M14 melanoma = test system: M14 melanoma
# MALME-3M melanoma = test system: MALME-3M melanoma
# MDA-MB-231 breast = test system: MDA-MB-231 breast
# MDA-MB-435 = test system: MDA-MB-435
# MDA-N = test system: MDA-N
# MOLT-4 leukemia = test system: MOLT-4 leukemia
# NCI-H226 lung = test system: NCI-H226 lung
# NCI-H23 lung = test system: NCI-H23 lung
# NCI-H460 lung = test system: NCI-H460 lung
# NCI-H522 lung = test system: NCI-H522 lung
# NCI/ADR-RES ovarian = test system: NCI/ADR-RES ovarian
# OVCAR-3 ovarian = test system: OVCAR-3 ovarian
# OVCAR-4 ovarian = test system: OVCAR-4 ovarian
# OVCAR-5 ovarian = test system: OVCAR-5 ovarian
# OVCAR-8 ovarian = test system: OVCAR-8 ovarian
# RPMI-8226 leukemia = test system: RPMI-8226 leukemia
# SF-268 CNS = test system: SF-268 CNS
# SF-295 CNS = test system: SF-295 CNS
# SK-MEL-2 melanoma = test system: SK-MEL-2 melanoma
# SK-MEL-28 melanoma = test system: SK-MEL-28 melanoma
# SK-MEL-5 melanoma = test system: SK-MEL-5 melanoma
# SK-OV-3 ovarian = test system: SK-OV-3 ovarian
# SN12C renal = test system: SN12C renal
# SNB-75 CNS = test system: SNB-75 CNS
# SR leukemia = test system: SR leukemia
# SW-620 colon = test system: SW-620 colon
# T-47D breast = test system: T-47D breast
# TK-10 renal = test system: TK-10 renal
# U251 CNS = test system: U251 CNS
# UACC-257 melanoma = test system: UACC-257 melanoma
# UACC-62 melanoma = test system: UACC-62 melanoma
# UO-31 renal = test system: UO-31 renal
# MCF7 breast = test system: MCF7 breast
# PC-3 prostate = test system: PC-3 prostate
# RXF 393 renal = test system: RXF 393 renal
# SF-539 CNS = test system: SF-539 CNS
# SNB-19 CNS = test system: SNB-19 CNS
smiles,measurement,setting,value
CN(C)/C=C/C=C(/C=N/S(=O)(=O)C(F)(F)F)C1C=CN(S(=O)(=O)C(F)(F)F)C=C1,TGI,786-0 renal,> 100 µM
same,TGI,A498 renal,88.8 µM
same,TGI,A549 NSCLC,> 100 µM
same,TGI,ACHN renal,84.7 µM
same,TGI,BT-549 breast,70.1 µM
same,TGI,CAKI-1 renal,76.6 µM
same,TGI,CCRF-CEM leukemia,79.9 µM
same,TGI,COLO 205 colon,32.6 µM
same,TGI,DU-145 prostate,> 100 µM
same,TGI,EKVX NSCLC,87.2 µM
same,TGI,HCC-2998 colon,78.5 µM
same,TGI,HCT-116 colon,87.2 µM
same,TGI,HCT-15 colon,57.8 µM
same,TGI,HL-60(TB) leukemia,46.4 µM
same,TGI,HOP-62 NSCLC,> 100 µM
same,TGI,HOP-92 NSCLC,90 µM
same,TGI,HS 578T breast,> 100 µM
same,TGI,HT29 colon,75.2 µM
same,TGI,IGROV1 ovarian,> 100 µM
same,TGI,K-562 leukemia,> 100 µM
same,TGI,KM12 colon,71.1 µM
same,TGI,LOX IMVI melanoma,> 100 µM
same,TGI,M14 melanoma,> 100 µM
same,TGI,MALME-3M melanoma,82.7 µM
same,TGI,MDA-MB-231 breast,81.7 µM
same,TGI,MDA-MB-435,73.5 µM
same,TGI,MDA-N,> 100 µM
same,TGI,MOLT-4 leukemia,71 µM
same,TGI,NCI-H226 lung,67.3 µM
same,TGI,NCI-H23 lung,56.6 µM
same,TGI,NCI-H460 lung,> 100 µM
same,TGI,NCI-H522 lung,52.4 µM
same,TGI,NCI/ADR-RES ovarian,96.1 µM
same,TGI,OVCAR-3 ovarian,98 µM
same,TGI,OVCAR-4 ovarian,42.9 µM
same,TGI,OVCAR-5 ovarian,91.7 µM
same,TGI,OVCAR-8 ovarian,> 100 µM
same,TGI,RPMI-8226 leukemia,> 100 µM
same,TGI,SF-268 CNS,> 100 µM
same,TGI,SF-295 CNS,> 100 µM
same,TGI,SK-MEL-2 melanoma,54.1 µM
same,TGI,SK-MEL-28 melanoma,> 100 µM
same,TGI,SK-MEL-5 melanoma,51.7 µM
same,TGI,SK-OV-3 ovarian,94 µM
same,TGI,SN12C renal,> 100 µM
same,TGI,SNB-75 CNS,50.6 µM
same,TGI,SR leukemia,> 100 µM
same,TGI,SW-620 colon,> 100 µM
same,TGI,T-47D breast,75 µM
same,TGI,TK-10 renal,> 100 µM
same,TGI,U251 CNS,> 100 µM
same,TGI,UACC-257 melanoma,77.7 µM
same,TGI,UACC-62 melanoma,83.9 µM
same,TGI,UO-31 renal,89.4 µM
O=c1[nH]nc(-c2ccccc2)n1-n1cnnc1,TGI,786-0 renal,> 100 µM
same,TGI,A498 renal,> 100 µM
same,TGI,A549 NSCLC,> 100 µM
same,TGI,ACHN renal,> 100 µM
same,TGI,BT-549 breast,> 100 µM
same,TGI,CAKI-1 renal,> 100 µM
same,TGI,CCRF-CEM leukemia,> 100 µM
same,TGI,COLO 205 colon,> 100 µM
same,TGI,EKVX NSCLC,> 100 µM
same,TGI,HCC-2998 colon,> 100 µM
same,TGI,HCT-116 colon,> 100 µM
same,TGI,HCT-15 colon,> 100 µM
same,TGI,HOP-62 NSCLC,> 100 µM
same,TGI,HOP-92 NSCLC,> 100 µM
same,TGI,HS 578T breast,> 100 µM
same,TGI,HT29 colon,> 100 µM
same,TGI,IGROV1 ovarian,> 100 µM
same,TGI,K-562 leukemia,> 100 µM
same,TGI,KM12 colon,> 100 µM
same,TGI,LOX IMVI melanoma,> 100 µM
same,TGI,M14 melanoma,> 100 µM
same,TGI,MALME-3M melanoma,> 100 µM
same,TGI,MCF7 breast,> 100 µM
same,TGI,MDA-MB-231 breast,> 100 µM
same,TGI,MDA-MB-435,> 100 µM
same,TGI,MDA-N,> 100 µM
same,TGI,MOLT-4 leukemia,> 100 µM
same,TGI,NCI-H226 lung,> 100 µM
same,TGI,NCI-H23 lung,> 100 µM
same,TGI,NCI-H460 lung,> 100 µM
same,TGI,NCI-H522 lung,> 100 µM
same,TGI,NCI/ADR-RES ovarian,> 100 µM
same,TGI,OVCAR-3 ovarian,> 100 µM
same,TGI,OVCAR-4 ovarian,> 100 µM
same,TGI,OVCAR-5 ovarian,> 100 µM
same,TGI,OVCAR-8 ovarian,> 100 µM
same,TGI,PC-3 prostate,> 100 µM
same,TGI,RPMI-8226 leukemia,> 100 µM
same,TGI,RXF 393 renal,> 100 µM
same,TGI,SF-268 CNS,> 100 µM
same,TGI,SF-295 CNS,> 100 µM
same,TGI,SF-539 CNS,> 100 µM
same,TGI,SK-MEL-2 melanoma,> 100 µM
same,TGI,SK-MEL-5 melanoma,> 100 µM
same,TGI,SK-OV-3 ovarian,> 100 µM
same,TGI,SN12C renal,> 100 µM
same,TGI,SNB-19 CNS,> 100 µM
same,TGI,SNB-75 CNS,> 100 µM
same,TGI,SR leukemia,> 100 µM
same,TGI,SW-620 colon,> 100 µM
same,TGI,T-47D breast,> 100 µM
same,TGI,TK-10 renal,> 100 µM
same,TGI,U251 CNS,> 100 µM
same,TGI,UACC-257 melanoma,> 100 µM
same,TGI,UACC-62 melanoma,> 100 µM
same,TGI,UO-31 renal,> 100 µM

# — PubChem BioAssay (NCI)
